According to patent publication US20240216392A1, “METHODS OF TREAMENT” (Arena Pharmaceuticals, Inc., priority 2022, published 2024):
Where two headings read alike, the source gives them in different places.

Assay: Phase 1 multiple-dose study, plasma PK
Assay type: in vivo, human
Conditions: for half-life / Tmax / Cmax / AUC: both sexes, human, plasma, oral; for AUC: read-out: Plasma AUCtau, geometric mean (geometric CV %)
Procedure: Subjects were enrolled to 1 of 2 dosage regimens. Subject enrollment was stratified by sex to ensure approximate sex balance in each cohort.
Morning doses were administered following a standard light breakfast (e.g., milk and cereal, toast, and fruit) on all days. TID dosing (three times a day) was approximately 8 hours apart. Subjects fasted from midnight onwards, until the morning breakfast each day. There was no fluid restriction during the study, but subjects should not have consumed excessive amounts of fluid on any day.
The Phase 1, open-label, multiple-dose study of Example 1 was conducted for Cohorts 1-3, 4A, and 4B.
Morning doses were administered following a standard light breakfast (e.g., milk and cereal, toast, and fruit) on all days. TID dosing (three times a day) was approximately 8 hours apart, and BID dosing (two times a day) was 12 hours apart. Subjects fasted from midnight onwards, until the morning breakfast each day. There was no fluid restriction during the study, but subjects were not to consume excessive amounts of fluid on any day.

With `C[C@H]1CN2CCNCc3ccc(C(=O)NCC(F)F)c1c32` [Compound 1, (R)—N-(2,2-difluoroethyl)-7-methyl-1,2,3,4,6,7-hexahydro-[1,4]diazepino[6,7,1-hi]indole-8-carboxamide] the “average plasma concentrations over the dosing interval, comparability” value (Cohort 2 (12 mg TID) vs Cohort 4B (18 mg BID)) was ~28%, the “Plasma Cavg, geometric mean (geometric CV %)” value (“Plasma Cavg … (geometric CV %)” for short) (Day 8, Cohort 1 (6 mg TID)) was 9.947 (2.6843) ng/mL and the “Plasma Ctrough, geometric mean (geometric CV %)” value (Day 8, Cohort 1 (6 mg TID)) was 5.150 (1.6616) ng/mL. The “Plasma Cavg … (geometric CV %)” value (Day 8, Cohort 2 (12 mg TID)) was 26.19 (14.697) ng/mL, the “Plasma Ctrough, geometric mean (geometric CV %)” value (Day 8, Cohort 2 (12 mg TID)) was 14.96 (9.9859) ng/mL and the “Plasma Cavg … (geometric CV %)” value (Day 8, Cohort 3 (12 mg BID)) was 14.42 (6.4875) ng/mL. The “Plasma Ctrough, geometric mean (geometric CV %)” value (Day 8, Cohort 3 (12 mg BID)) was 4.892 (2.8780) ng/mL, the “Plasma Cavg … (geometric CV %)” value (Day 8, Cohort 4A (15 mg BID)) was 16.64 (4.4047) ng/mL and the “Plasma Ctrough, geometric mean (geometric CV %)” value (Day 8, Cohort 4A (15 mg BID)) was 5.557 (2.3832) ng/mL. The “Plasma Cavg … (geometric CV %)” value (Day 8, Cohort 4B (18 mg BID)) was 20.62 (8.3690) ng/mL, the “Plasma Ctrough, geometric mean (geometric CV %)” value (Day 8, Cohort 4B (18 mg BID)) was 7.427 (3.4830) ng/mL and the “Plasma Cavg … (geometric CV %)” value (Day 9, Cohort 1 (6 mg TID)) was 11.03 (3.3822) ng/mL. For the same molecule, the “Plasma Ctrough, geometric mean (geometric CV %)” value (Day 9, Cohort 1 (6 mg TID)) was 5.181 (1.9717) ng/mL, the “Plasma Cavg … (geometric CV %)” value (Day 9, Cohort 2 (12 mg TID)) was 27.22 (17.047) ng/mL and the “Plasma Ctrough, geometric mean (geometric CV %)” value (Day 9, Cohort 2 (12 mg TID)) was 14.74 (13.800) ng/mL. The “Plasma Cavg … (geometric CV %)” value (Day 9, Cohort 3 (12 mg BID)) was 14.85 (6.1228) ng/mL, the “Plasma Ctrough, geometric mean (geometric CV %)” value (Day 9, Cohort 3 (12 mg BID)) was 4.864 (2.7031) ng/mL and the “Plasma Cavg … (geometric CV %)” value (Day 9, Cohort 4A (15 mg BID)) was 17.84 (4.6403) ng/mL. The “Plasma Ctrough, geometric mean (geometric CV %)” value (Day 9, Cohort 4A (15 mg BID)) was 6.497 (2.3570) ng/mL, the “Plasma Cavg … (geometric CV %)” value (Day 9, Cohort 4B (18 mg BID)) was 22.23 (10.604) ng/mL and the “Plasma Ctrough, geometric mean (geometric CV %)” value (Day 9, Cohort 4B (18 mg BID)) was 7.066 (4.3229) ng/mL. For the same molecule, the “Plasma Cavg … (geometric CV %)” value (Day 10, Cohort 1 (6 mg TID)) was 10.71 (2.8291) ng/mL, the “Plasma Ctrough, geometric mean (geometric CV %)” value (Day 10, Cohort 1 (6 mg TID)) was 5.730 (1.7982) ng/mL and the “Plasma Cavg … (geometric CV %)” value (Day 10, Cohort 2 (12 mg TID)) was 27.73 (18.586) ng/mL. The “Plasma Ctrough, geometric mean (geometric CV %)” value (Day 10, Cohort 2 (12 mg TID)) was 14.30 (11.743) ng/mL, the “Plasma Cavg … (geometric CV %)” value (Day 10, Cohort 3 (12 mg BID)) was 14.14 (6.2142) ng/mL and the “Plasma Ctrough, geometric mean (geometric CV %)” value (Day 10, Cohort 3 (12 mg BID)) was 3.951 (2.4984) ng/mL. For the same molecule, the “Plasma Cavg … (geometric CV %)” value (Day 10, Cohort 4A (15 mg BID)) was 16.70 (5.0410) ng/mL, the “Plasma Ctrough, geometric mean (geometric CV %)” value (Day 10, Cohort 4A (15 mg BID)) was 4.372 ng/mL and the “Plasma Cavg … (geometric CV %)” value (Day 10, Cohort 4B (18 mg BID)) was 19.64 (6.8876) ng/mL. For the same molecule, the “Plasma Ctrough, geometric mean (geometric CV %)” value (Day 10, Cohort 4B (18 mg BID)) was 5.185 (2.4429) ng/mL, the half-life (3 mg, Day 1, single 3 mg dose, Cohort 1, read-out: apparent terminal half-life (converted)) was 3.1 h and the Tmax (3 mg, Day 1, single 3 mg dose, Cohort 1, read-out: plasma Tmax, median) was 1 h. For the same molecule, the Cmax (3 mg, Day 1, single 3 mg dose, Cohort 1, read-out: plasma geometric mean Cmax) was 4.7 ng/mL, the half-life (6 mg, Day 1, single 6 mg dose, Cohorts 2, 3, 4A, 4B, read-out: apparent terminal half-life (converted)) was 3.1 to 3.3 h and the Tmax (6 mg, Day 1, single 6 mg dose, Cohorts 2, 3, 4A, 4B, read-out: plasma Tmax, median) was 0.98 to 1.14 h. It also gave a Cmax (6 mg, Day 1, single 6 mg dose, Cohorts 2, 3, 4A, 4B, read-out: plasma geometric mean Cmax) of 7.8 to 12.4 ng/mL, an AUC (6 mg, Day 8, Cohort 1 (6 mg TID)) of 77.1 ng·h/mL and a Cmax (6 mg, Day 8, Cohort 1 (6 mg TID), read-out: Plasma Cmax, geometric mean (geometric CV %)) of 16.6 ng/mL. It also gave a half-life (6 mg, Day 8, Cohort 1 (6 mg TID), read-out: Plasma T1/2, mean (SD) (converted)) of 4.49 h, a Tmax (6 mg, Day 8, Cohort 1 (6 mg TID), read-out: Plasma Tmax, median (minimum, maximum)) of 1.54 h and an AUC (6 mg, Day 9, Cohort 1 (6 mg TID)) of 84.9 ng·h/mL. The Cmax (6 mg, Day 9, Cohort 1 (6 mg TID), read-out: Plasma Cmax, geometric mean (geometric CV %)) was 18.4 ng/mL, the half-life (6 mg, Day 9, Cohort 1 (6 mg TID), read-out: Plasma T1/2, mean (SD) (converted)) was 3.85 h and the Tmax (6 mg, Day 9, Cohort 1 (6 mg TID), read-out: Plasma Tmax, median (minimum, maximum)) was 0.94 h. For the same molecule, the AUC (6 mg, Day 10, Cohort 1 (6 mg TID)) was 82.6 ng·h/mL, the Cmax (6 mg, Day 10, Cohort 1 (6 mg TID), read-out: Plasma Cmax, geometric mean (geometric CV %)) was 16.5 ng/mL and the half-life (6 mg, Day 10, Cohort 1 (6 mg TID), read-out: Plasma T1/2, mean (SD) (converted)) was 4.63 h. It also gave a Tmax (6 mg, Day 10, Cohort 1 (6 mg TID), read-out: Plasma Tmax, median (minimum, maximum)) of 1.03 h, an AUC (12 mg, Day 8, Cohort 2 (12 mg TID)) of 190 ng·h/mL and a Cmax (12 mg, Day 8, Cohort 2 (12 mg TID), read-out: Plasma Cmax, geometric mean (geometric CV %)) of 36.7 ng/mL. It also gave a half-life (12 mg, Day 8, Cohort 2 (12 mg TID), read-out: Plasma T1/2, mean (SD) (converted)) of 4.74 h, a Tmax (12 mg, Day 8, Cohort 2 (12 mg TID), read-out: Plasma Tmax, median (minimum, maximum)) of 1.01 h and an AUC (12 mg, Day 8, Cohort 3 (12 mg BID)) of 156 ng·h/mL. For the same molecule, the Cmax (12 mg, Day 8, Cohort 3 (12 mg BID), read-out: Plasma Cmax, geometric mean (geometric CV %)) was 30.3 ng/mL, the half-life (12 mg, Day 8, Cohort 3 (12 mg BID), read-out: Plasma T1/2, mean (SD) (converted)) was 4.32 h and the Tmax (12 mg, Day 8, Cohort 3 (12 mg BID), read-out: Plasma Tmax, median (minimum, maximum)) was 1.01 h. It also gave an AUC (12 mg, Day 9, Cohort 2 (12 mg TID)) of 194 ng·h/mL, a Cmax (12 mg, Day 9, Cohort 2 (12 mg TID), read-out: Plasma Cmax, geometric mean (geometric CV %)) of 44.5 ng/mL and a half-life (12 mg, Day 9, Cohort 2 (12 mg TID), read-out: Plasma T1/2, mean (SD) (converted)) of 4.79 h.
